Test results taken from patent publication US11192907B2, “Aminopeptidase A inhibitors and pharmaceutical compositions comprising the same” (QUANTUM GENOMICS, priority 2018, dated 2021).
pIC50: −log10 of the molar value.

What follows are molecules tested against T1, recombinant mouse APA (Mus musculus, UniProt P16406) (assay: Measurement of APA activity in vitro (GluβNa hydrolysis, microplate)). Details: 200 μM Glu-βNa, pH 7.4, 37° C., read-out: In vitro inhibition of aminopeptidase A, IC50 classification.
T1 sequence (P16406 1-945): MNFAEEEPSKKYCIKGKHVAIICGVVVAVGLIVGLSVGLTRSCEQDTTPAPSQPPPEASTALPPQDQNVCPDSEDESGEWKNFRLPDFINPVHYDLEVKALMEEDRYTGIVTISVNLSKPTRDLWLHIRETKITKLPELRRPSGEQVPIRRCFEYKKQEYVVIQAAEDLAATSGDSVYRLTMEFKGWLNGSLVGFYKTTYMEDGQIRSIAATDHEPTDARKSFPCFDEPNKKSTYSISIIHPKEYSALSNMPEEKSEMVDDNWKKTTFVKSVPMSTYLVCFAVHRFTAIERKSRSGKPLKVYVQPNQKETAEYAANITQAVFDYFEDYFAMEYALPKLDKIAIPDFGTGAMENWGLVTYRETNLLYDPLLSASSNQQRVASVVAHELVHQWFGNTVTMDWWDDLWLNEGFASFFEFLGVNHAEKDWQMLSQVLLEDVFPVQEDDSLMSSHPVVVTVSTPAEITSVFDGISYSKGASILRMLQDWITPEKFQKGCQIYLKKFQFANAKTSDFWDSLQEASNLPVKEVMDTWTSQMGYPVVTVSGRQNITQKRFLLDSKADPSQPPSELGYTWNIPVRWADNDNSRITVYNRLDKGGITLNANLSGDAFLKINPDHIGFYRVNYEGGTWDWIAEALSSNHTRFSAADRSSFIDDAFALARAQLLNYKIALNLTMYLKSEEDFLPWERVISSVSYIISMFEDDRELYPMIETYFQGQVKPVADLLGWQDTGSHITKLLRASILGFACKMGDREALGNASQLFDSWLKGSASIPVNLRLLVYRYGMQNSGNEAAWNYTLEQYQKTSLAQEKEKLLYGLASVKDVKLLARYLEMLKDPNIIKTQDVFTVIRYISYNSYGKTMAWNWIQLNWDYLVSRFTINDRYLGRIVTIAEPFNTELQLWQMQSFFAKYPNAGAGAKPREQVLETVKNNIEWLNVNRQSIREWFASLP
Type: biochemical
Text: In vitro, in the presence of calcium ions, APA hydrolyses a synthetic substrate α-L-glutamyl-β-naphthylamide (GluβNa) to glutamate and β-naphthylamine (βNa). A diazotation reaction in acidic medium makes it possible to reveal the β-naphthylamine by formation of a violet-coloured complex: spectrophotometric measurement then makes it possible to know the amount of complex formed and, by reference to a standard curve produced with increasing concentrations of β-naphthylamine, to deduce the enzymatic activity of the sample.
The reaction takes place at pH 7.4 in 50 mM tris-HCl buffer, in the presence of calcium (4 mM CaCl2)); recombinant mouse APA is incubated at 37° C. in the presence of the substrate (200 μM Glu-βNa) and in the presence or absence of various concentrations of the inhibitor to be tested, in a final volume of 100 μL. The reaction is stopped by adding 10 μL of 3N HCl. A standard curve of β-naphthylamine was prepared in parallel by diazotizing increasing concentrations (up to 0.2 mM) of 2-naphthylamine in 0.1 N HCl.
The following are added to each well: 25 μL of sodium nitrite (NaNO2) (mix, wait 5 minutes at room temperature), 50 μL of ammonium sulfamate (mix, wait 5 minutes at room temperature), then add 25 μL of N-(1-naphthyl) ethylenediamine dihydrochloride (mix, wait for stabilization of the violet colour for approximately 30 minutes at 37° C.).
The absorbance is then measured at 540 nm.
Work on NC(CCC(=O)O)P(=O)(O)CCc1ccccc1-c1ccccc1 (stereo not drawn) [Example 39, 4-amino-4-[(2-{[1,1′-biphenyl]-2-yl}ethyl)(hydroxy)phosphoryl]butanoic acid] yielded a pIC50 of 6.52 to 7.52. For NC(CCC(=O)O)P(=O)(O)CCc1cccc(Cl)c1Cl (stereo not drawn) [Example 40, 4-amino-4-{[2-(2,3-dichlorophenyl)ethyl](hydroxy)phosphoryl}butanoic acid], the pIC50 was > 7.52. Molecule COc1c(Cl)cccc1CCP(=O)(O)C(N)CCC(=O)O (stereo not drawn) [Example 41, 4-amino-4-{[2-(3-chloro-2-methoxyphenyl)ethyl](hydroxy)phosphoryl}butanoic acid] has a pIC50 of 6.52 to 7.52. Cn1cc(CCP(=O)(O)C(N)CCC(=O)O)c2ccccc21 (stereo not drawn) [Example 42, 3-carboxy-1-{hydroxy[2-(1-methyl-1H-indol-3-yl)ethyl]phosphoryl}propan-1-aminium chloride] was tested, and the pIC50 was 6.52 to 7.52. With NC(CCC(=O)O)P(=O)(O)CCc1ccccc1OC1CCCCC1 (stereo not drawn) [Example 43, 3-carboxy-1-({2-[2-(cyclohexyloxy)phenyl]ethyl}(hydroxy)phosphoryl) propan-1-aminium chloride] the pIC50 was > 7.52. With COCCOc1ccccc1CCP(=O)(O)C(N)CCC(=O)O (stereo not drawn) [Example 44, 3-carboxy-1-[hydroxy({2-[2-(2-methoxyethoxy)phenyl]ethyl})phosphoryl]propan-1-aminium chloride] the pIC50 was > 7.52. COc1cc(F)ccc1CCP(=O)(O)C(N)CCC(=O)O (stereo not drawn) [Example 46, 4-amino-4-{[2-(4-fluoro-2-methoxyphenyl)ethyl](hydroxy)phosphoryl}butanoic acid] was tested, and the pIC50 was > 7.52. Molecule NC(CCC(=O)O)P(=O)(O)CCn1ncc2ccccc21 (stereo not drawn) [Example 47, 4-amino-4-{hydroxy[2-(1H-indazol-1-yl)ethyl]phosphoryl}butanoic acid] has a pIC50 of 5.00 to 6.52. For NC(CCC(=O)O)P(=O)(O)CCc1ccccc1OCc1ccccc1 (stereo not drawn) [Example 48, 1-({2-[2-(benzyloxy)phenyl]ethyl}(hydroxy)phosphoryl)-3-carboxy propan-1-aminium chloride], the pIC50 was > 7.52. NC(CCCC(=O)O)P(=O)(O)CCc1ccccc1 (stereo not drawn) [Example 49, 5-amino-5-[hydroxy(2-phenylethyl)phosphoryl]pentanoic acid] gave a pIC50 of 5.00 to 6.52. For N[C@@H](CCC(=O)O)P(=O)(O)CCc1ccccc1 [Example 50, (1R)-3-carboxy-1-[hydroxy(2-phenylethyl)phosphoryl]propan-1-aminium chloride], the pIC50 was > 7.52. N[C@H](CCC(=O)O)P(=O)(O)CCc1ccccc1 [Example 51, (1S)-3-carboxy-1-[hydroxy(2-phenylethyl)phosphoryl]propan-1-aminium chloride] was tested, and the pIC50 was 5.00 to 6.52. For N[C@@H](CCC(=O)O)P(=O)(O)CCc1ccccc1OC1CCCCC1 [Example 53, (4R)-4-amino-4-({2-[2-(cyclohexyloxy)phenyl]ethyl} (hydroxy)phosphoryl) butanoic acid], the pIC50 was > 7.52. With COc1ccccc1CP(=O)(O)C(N)CCS(=O)(=O)O (stereo not drawn) [Example 60, 3-amino-3-{hydroxy[(2-methoxyphenyl)methyl]phosphoryl}propane-1-sulfonic acid] the pIC50 was 6.52 to 7.52. NC(CCS(=O)(=O)O)P(=O)(O)CCc1ccccc1 (stereo not drawn) [Example 61, 3-amino-3-[hydroxy(2-phenylethyl)phosphoryl]propane-1-sulfonic acid] gave a pIC50 of 5.00 to 6.52. With COc1ccccc1CCP(=O)(O)C(N)CCS(=O)(=O)O (stereo not drawn) [Example 62, 3-amino-3-{hydroxy[2-(2-methoxyphenyl)ethyl]phosphoryl}propane-1-sulfonic acid] the pIC50 was 6.52 to 7.52. NC(CCS(=O)(=O)O)P(=O)(O)CCCc1ccccc1 (stereo not drawn) [Example 63, 3-amino-3-[hydroxy(3-phenylpropyl)phosphoryl]propane-1-sulfonic acid] showed a pIC50 of 5.00 to 6.52. In the case of NC(CCS(=O)(=O)O)P(=O)(O)Cc1cccc(-c2ccccc2)c1 (stereo not drawn) [Example 64, 3-amino-3-[({[1,1′-biphenyl]-3-yl}methyl)(hydroxy)phosphoryl]propane-1-sulfonic acid], the pIC50 was 5.00 to 6.52.
